Source: ChEMBL document CHEMBL2074153, “Identification of organic anion transporting polypeptide 4 (Oatp4) as a major full-length isoform of the liver-specific transporter-1 (rlst-1) in rat liver” (FEBS Lett, 2000)

T1: Solute carrier organic anion transporter family member 1B2 (Rattus norvegicus, UniProt Q9QZX8)
T1 sequence (Q9QZX8 whole entry): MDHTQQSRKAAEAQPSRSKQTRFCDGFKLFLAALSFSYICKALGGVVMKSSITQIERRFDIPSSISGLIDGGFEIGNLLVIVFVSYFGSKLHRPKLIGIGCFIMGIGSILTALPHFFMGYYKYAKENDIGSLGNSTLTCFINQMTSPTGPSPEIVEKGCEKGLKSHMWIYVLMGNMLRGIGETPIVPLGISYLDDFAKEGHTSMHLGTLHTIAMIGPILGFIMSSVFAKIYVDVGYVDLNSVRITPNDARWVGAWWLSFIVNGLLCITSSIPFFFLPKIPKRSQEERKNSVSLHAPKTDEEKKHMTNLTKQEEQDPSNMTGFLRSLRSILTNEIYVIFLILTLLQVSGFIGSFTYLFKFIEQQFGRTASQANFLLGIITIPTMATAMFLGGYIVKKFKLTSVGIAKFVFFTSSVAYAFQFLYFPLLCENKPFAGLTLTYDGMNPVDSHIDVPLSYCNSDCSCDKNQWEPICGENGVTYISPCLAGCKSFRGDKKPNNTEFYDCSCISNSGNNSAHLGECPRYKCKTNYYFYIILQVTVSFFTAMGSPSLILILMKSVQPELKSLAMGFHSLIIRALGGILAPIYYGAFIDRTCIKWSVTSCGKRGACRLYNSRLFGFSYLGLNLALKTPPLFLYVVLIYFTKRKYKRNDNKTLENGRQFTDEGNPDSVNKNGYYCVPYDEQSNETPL


Columns and labels:
[1] = biological target: T1, Solute carrier organic anion transporter family member 1B2; experiment: (§1) TP_TRANSPORTER: uptake in Xenopus laevis oocytes; assay type: functional, cell-based; conditions: oocyte
[2] = substrate: O=C1OC(c2ccc(O)c(S(=O)(=O)O)c2)(c2ccc(O)c(S(=O)(=O)O)c2)c2c(Br)c(Br)c(Br)c(Br)c21; experiment: as §1; assay type: functional, cell-based, Oocyte

| Molecule | Activity [1] | Km [2] |
| --- | --- | --- |
| N[C@@H](Cc1cc(I)c(Oc2cc(I)c(O)c(I)c2)c(I)c1)C(=O)O [LEVOTHYROXINE] | substrate [+] |  |
| N[C@@H](Cc1cc(I)c(Oc2ccc(O)c(I)c2)c(I)c1)C(=O)O [LIOTHYRONINE] | substrate [+] |  |
| Solute carrier organic anion transporter family member 1B2 (Rattus norvegicus) (protein) MDHTQQSRKAAEAQPSRSKQTRFCDGFKLFLAALSFSYICKALGGVVMKSSITQIERRFDIPSSISGLIDGGFEIGNLLVIVFVSYFGSKLHRPKLIGIGCFIMGIGSILTALPHFFMGYYKYAKENDIGSLGNSTLTCFINQMTSPTGPSPEIVEKGCEKGLKSHMWIYVLMGNMLRGIGETPIVPLGISYLDDFAKEGHTSMHLGTLHTIAMIGPILGFIMSSVFAKIYVDVGYVDLNSVRITPNDARWVGAWWLSFIVNGLLCITSSIPFFFLPKIPKRSQEERKNSVSLHAPKTDEEKKHMTNLTKQEEQDPSNMTGFLRSLRSILTNEIYVIFLILTLLQVSGFIGSFTYLFKFIEQQFGRTASQANFLLGIITIPTMATAMFLGGYIVKKFKLTSVGIAKFVFFTSSVAYAFQFLYFPLLCENKPFAGLTLTYDGMNPVDSHIDVPLSYCNSDCSCDKNQWEPICGENGVTYISPCLAGCKSFRGDKKPNNTEFYDCSCISNSGNNSAHLGECPRYKCKTNYYFYIILQVTVSFFTAMGSPSLILILMKSVQPELKSLAMGFHSLIIRALGGILAPIYYGAFIDRTCIKWSVTSCGKRGACRLYNSRLFGFSYLGLNLALKTPPLFLYVVLIYFTKRKYKRNDNKTLENGRQFTDEGNPDSVNKNGYYCVPYDEQSNETPL |  | 1.1 µM |
